# In ChEMBL document CHEMBL1126953, “Quinoxaline N-oxide containing potent angiotensin II receptor antagonists: synthesis, biological properties, and structure-activity relationships” (J Med Chem, 1993):
# What was measured:
# [1] = molecular target: T1, Angiotensin II receptor (AT-1) type-1 (Rattus norvegicus, UniProt P29089+P25095); test: Binding affinity for Angiotensin II receptor, type 1 in rat adrenal cortical membranes using [125I]Sar1, Ile8-angiotensin II; assay type: cell membranes
# T1 sequence (P29089 whole entry): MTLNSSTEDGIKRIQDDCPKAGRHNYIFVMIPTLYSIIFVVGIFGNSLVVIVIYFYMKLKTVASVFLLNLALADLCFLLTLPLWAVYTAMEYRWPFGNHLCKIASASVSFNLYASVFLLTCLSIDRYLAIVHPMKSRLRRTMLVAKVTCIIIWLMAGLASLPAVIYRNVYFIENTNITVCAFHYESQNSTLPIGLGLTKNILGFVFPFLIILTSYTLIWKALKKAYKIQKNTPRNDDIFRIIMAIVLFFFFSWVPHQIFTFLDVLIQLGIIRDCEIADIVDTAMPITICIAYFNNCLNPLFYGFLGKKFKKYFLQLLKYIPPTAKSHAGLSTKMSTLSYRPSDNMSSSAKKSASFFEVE
# T1 sequence (P25095 whole entry): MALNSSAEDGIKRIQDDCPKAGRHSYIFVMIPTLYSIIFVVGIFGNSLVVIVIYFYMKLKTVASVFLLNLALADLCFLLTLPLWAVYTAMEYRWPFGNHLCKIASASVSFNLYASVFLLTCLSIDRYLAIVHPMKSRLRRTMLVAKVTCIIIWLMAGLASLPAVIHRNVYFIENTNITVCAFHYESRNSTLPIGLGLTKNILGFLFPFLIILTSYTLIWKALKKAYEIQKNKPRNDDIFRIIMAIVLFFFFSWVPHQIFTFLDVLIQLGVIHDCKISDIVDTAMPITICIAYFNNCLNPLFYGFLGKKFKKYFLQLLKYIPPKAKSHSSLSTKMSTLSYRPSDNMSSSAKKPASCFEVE
# [2] = molecular target: Angiotensin II receptor type 1 (Oryctolagus cuniculus) (UniProt P34976); test: Antagonism of angiotensin II induced contraction of isolated rabbit aorta
# Angiotensin II receptor type 1 (Oryctolagus cuniculus), sequence (P34976 whole entry, looked up): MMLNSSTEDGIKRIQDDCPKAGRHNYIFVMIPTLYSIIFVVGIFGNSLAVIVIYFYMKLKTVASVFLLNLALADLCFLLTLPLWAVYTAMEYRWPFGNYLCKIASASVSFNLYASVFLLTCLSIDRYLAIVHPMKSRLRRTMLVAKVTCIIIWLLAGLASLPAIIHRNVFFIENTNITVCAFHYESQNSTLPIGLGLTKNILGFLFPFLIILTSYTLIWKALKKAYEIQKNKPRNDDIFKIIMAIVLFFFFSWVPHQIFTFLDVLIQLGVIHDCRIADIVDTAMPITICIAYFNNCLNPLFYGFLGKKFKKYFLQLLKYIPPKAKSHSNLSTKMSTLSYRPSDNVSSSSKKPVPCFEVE
# [3] = molecular target: T1, Angiotensin II receptor (AT-1) type-1; test: Binding affinity of compound in presence of bovine serum albumin (BSA) at 0.22% against rat adrenal Angiotensin II receptor, type 1; assay type: cell-free
# [4] = molecular target: T1, Angiotensin II receptor (AT-1) type-1; test: Binding affinity of compound in presence of bovine serum albumin (BSA) at 0.01% against rat adrenal Angiotensin II receptor, type 1; assay type: cell-free
# [5] = molecular target: T1, Angiotensin II receptor (AT-1) type-1; test: Binding affinity of compound in presence of bovine serum albumin (BSA) at 0% against rat Angiotensin II receptor, type 1; assay type: cell-free
# [6] = molecular target: T1, Angiotensin II receptor (AT-1) type-1; test: Binding affinity of compound in presence of bovine serum albumin (BSA) at 0.01% against rat Angiotensin II receptor, type 1; assay type: cell-free
# [7] = molecular target: T1, Angiotensin II receptor (AT-1) type-1; test: Binding affinity of compound in presence of bovine serum albumin (BSA) at 0% against rat adrenal Angiotensin II receptor, type 1; assay type: cell-free
Ki [1],Kb [2],SMILES,further results
71 nM,230 nM,CCCCc1c(Oc2ccc(-c3ccccc3-c3nn[nH]n3)cc2)nc2ccccc2[n+]1[O-],Ki [3]: 580 nM; Ki [4]: 71 nM
550 nM,480 nM,Cc1c(Oc2ccc(-c3ccccc3-c3nn[nH]n3)cc2)nc2ccccc2[n+]1[O-],Ki [3]: 24400 nM; Ki [4]: 550 nM
68 nM,0.19 nM,CCCCc1c(Oc2ccc(-c3ccccc3-c3nn[nH]n3)cc2)nc2c(C(=O)O)c(OCCC)ccc2[n+]1[O-],–
21 nM,0.97 nM,CCCCc1nc2ccc(F)c(C(=O)O)c2nc1Oc1ccc(-c2ccccc2-c2nn[nH]n2)cc1,–
46 nM,2.1 nM,CCCCc1nc2cccc(C(=O)O)c2nc1Oc1ccc(-c2ccccc2-c2nn[nH]n2)cc1,Ki [5]: 5.5 nM; Ki [6]: 46 nM
22 nM,2 nM,CCCCc1c(Oc2ccc(-c3ccccc3-c3nn[nH]n3)cc2)nc2c(C(=O)O)c(OCC(F)(F)F)ccc2[n+]1[O-],–
190 nM,13 nM,CCCc1nc2cccc(C(=O)O)c2nc1Oc1ccc(-c2ccccc2-c2nn[nH]n2)cc1,–
1.3 nM,0.026 nM,CCCCc1c(Oc2ccc(-c3ccccc3-c3nn[nH]n3)cc2)nc2c(C(=O)O)c(OCC)ccc2[n+]1[O-],Ki [7]: 0.4 nM; Ki [4]: 1.3 nM
9 nM,0.58 nM,CCCCc1c(Oc2ccc(-c3ccccc3-c3nn[nH]n3)cc2)nc2c(C(=O)O)c(F)ccc2[n+]1[O-],–
28 nM,–,CCCCc1c(Oc2ccc(-c3ccccc3-c3nn[nH]n3)cc2)nc2c(C(=O)O)c(OC(C)C)ccc2[n+]1[O-],–

# The remaining lines, values behind:
SMILES,Ki [1],Kb [2],further results
CCCCc1c(Oc2ccc(-c3ccccc3-c3nn[nH]n3)cc2)nc2c(C(=O)O)c(N)ccc2[n+]1[O-],7.4 nM,0.25 nM,–
CCCCc1c(Oc2ccc(-c3ccccc3-c3nn[nH]n3)cc2)nc2c(C(=O)O)cccc2[n+]1[O-],–,0.5 nM,–
CCCCc1c(Oc2ccc(-c3ccccc3-c3nn[nH]n3)cc2)nc2c(C(=O)O)c(OC)ccc2[n+]1[O-],17 nM,0.13 nM,–
CCCCc1nc2ccccc2nc1Oc1ccc(-c2ccccc2-c2nn[nH]n2)cc1,137 nM,290 nM,Ki [3]: 2200 nM
CCCCc1nc2ccc(OCC)c(C(=O)O)c2nc1Oc1ccc(-c2ccccc2-c2nn[nH]n2)cc1,44 nM,0.12 nM,–
Cc1nc2ccccc2nc1Oc1ccc(-c2ccccc2-c2nn[nH]n2)cc1,–,2300 nM,–
CCCCc1nc2ccccc2[n+]([O-])c1Oc1ccc(-c2ccccc2-c2nn[nH]n2)cc1,4.5 nM,0.44 nM,–
CCCCOc1ccc2c(nc(Oc3ccc(-c4ccccc4-c4nn[nH]n4)cc3)c(CCCC)[n+]2[O-])c1C(=O)O,50 nM,0.27 nM,–
